Experimental findings from patent US9357775B2, “Rosin-derived cationic compounds and polymers” (University of South Carolina, priority 2011, dated 2016) are described below.

What all share (type): cell-based
Test [1] has as its system different bacterial strains. Briefly: Control experiments with residual copper catalysts and solvents. The settings on record: control for residual catalyst/solvent. The method, then: To further confirm that the antimicrobial activities were not caused by residual copper catalysts and solvents (i.e. methanol), control experiments were carried out using these reagents against different bacterial strains.

A further test deals with Gram-negative bacteria. Briefly: MIC determination by disk-diffusion method, Gram-negative bacteria. The method, then: (§1) Tests for antimicrobial activities were carried out using rosin-derived quaternary ammonium 1 and their polymer 4 with a number-average molecular weight of 7.5×105 g/mol. The antimicrobial susceptibilities of several Gram-negative bacteria (e.g. Pseudomonas aeruginosa, Escherichia coli, Enterobacter aerogenes, and Klebsiella pneumonia) and Gram-positive bacteria (Staphylococcus aureus and Bacillus cereus) were determined. These strains were purified at laboratory and maintained at −70° C. in a 1:1 mixture of glycerol and dimethylsulfoxide (DMSO). To conduct the assays, a small volume of actively-growing cultures of each bacterial strain is spread on agar plates, and incubated at 28° C. for 24 h to form a ‘bacterial lawn’ covering the plate surface. Then 6 mm (dia) filter discs are added to the surface, and 30 ul samples (containing each compound at several concentrations dissolved in DMSO) are applied to the disc surfaces, and the plates are incubated.
(§2) Considering the potential applications of antimicrobial compounds and polymers as coatings for food packaging, medical implants and devices, and antifouling surfaces, all subsequent MIC determinations were carried out using the disk-diffusion method.

A further test concerns Gram-positive bacteria. Briefly: MIC determination by disk-diffusion method, Gram-positive bacteria. Here is the method:
as §1, §2

For the compound `CO` [methanol], the “toxicity against bacterial strains” value in test [1] was “did not exhibit significant toxicity”.
With `CC[N+](CC)(CC)CC.[Br-]` [TEAB, tetraethylammonium bromide], the “antimicrobial activity (control experiments)” value with Gram-negative bacteria and in the test on Gram-positive bacteria was “no activities” in each case.
